Measured values: ChEMBL document CHEMBL4630908 (2021)
The source made the active and inactive calls. No cut-off for these calls is given here.

What was measured:
[1] = target: 5-hydroxytryptamine receptor 1D (Homo sapiens, UniProt P28221); assay: GPCRScan assay: inhibition of 5-HT1D; set-up: radioligand conc. used [nm] 1.0 – 2.0, parental cells HEKT
[2] = target: T1, Bromodomain-containing protein 2 (Homo sapiens, UniProt P25440); assay: TR-FRET assay (BRD2 BD1)
Target sequence in this assay (P25440 whole entry): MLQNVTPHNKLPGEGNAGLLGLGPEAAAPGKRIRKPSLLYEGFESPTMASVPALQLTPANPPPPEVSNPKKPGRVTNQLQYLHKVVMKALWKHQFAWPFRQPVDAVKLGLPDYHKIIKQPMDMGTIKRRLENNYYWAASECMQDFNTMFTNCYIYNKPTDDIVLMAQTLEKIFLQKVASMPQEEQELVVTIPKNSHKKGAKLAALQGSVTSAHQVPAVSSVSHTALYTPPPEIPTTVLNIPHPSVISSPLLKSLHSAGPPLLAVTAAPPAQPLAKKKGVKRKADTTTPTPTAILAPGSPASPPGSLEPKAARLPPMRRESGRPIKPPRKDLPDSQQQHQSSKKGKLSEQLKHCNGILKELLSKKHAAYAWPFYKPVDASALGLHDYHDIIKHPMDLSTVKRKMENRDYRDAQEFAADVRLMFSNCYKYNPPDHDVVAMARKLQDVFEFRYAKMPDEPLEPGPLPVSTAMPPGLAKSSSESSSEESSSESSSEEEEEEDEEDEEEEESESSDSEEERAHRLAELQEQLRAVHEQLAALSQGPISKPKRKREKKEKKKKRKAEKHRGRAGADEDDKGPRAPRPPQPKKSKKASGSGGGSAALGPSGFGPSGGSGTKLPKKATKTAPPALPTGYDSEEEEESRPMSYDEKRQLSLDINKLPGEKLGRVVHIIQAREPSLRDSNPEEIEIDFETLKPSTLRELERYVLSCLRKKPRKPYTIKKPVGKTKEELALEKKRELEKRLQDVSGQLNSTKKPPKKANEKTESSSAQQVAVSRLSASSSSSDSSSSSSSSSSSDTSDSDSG

[3] = target: T2, Bromodomain-containing protein 3 (Homo sapiens, UniProt Q15059); assay: TR-FRET assay (BRD3 BD1)
Target sequence in this assay (Q15059 whole entry): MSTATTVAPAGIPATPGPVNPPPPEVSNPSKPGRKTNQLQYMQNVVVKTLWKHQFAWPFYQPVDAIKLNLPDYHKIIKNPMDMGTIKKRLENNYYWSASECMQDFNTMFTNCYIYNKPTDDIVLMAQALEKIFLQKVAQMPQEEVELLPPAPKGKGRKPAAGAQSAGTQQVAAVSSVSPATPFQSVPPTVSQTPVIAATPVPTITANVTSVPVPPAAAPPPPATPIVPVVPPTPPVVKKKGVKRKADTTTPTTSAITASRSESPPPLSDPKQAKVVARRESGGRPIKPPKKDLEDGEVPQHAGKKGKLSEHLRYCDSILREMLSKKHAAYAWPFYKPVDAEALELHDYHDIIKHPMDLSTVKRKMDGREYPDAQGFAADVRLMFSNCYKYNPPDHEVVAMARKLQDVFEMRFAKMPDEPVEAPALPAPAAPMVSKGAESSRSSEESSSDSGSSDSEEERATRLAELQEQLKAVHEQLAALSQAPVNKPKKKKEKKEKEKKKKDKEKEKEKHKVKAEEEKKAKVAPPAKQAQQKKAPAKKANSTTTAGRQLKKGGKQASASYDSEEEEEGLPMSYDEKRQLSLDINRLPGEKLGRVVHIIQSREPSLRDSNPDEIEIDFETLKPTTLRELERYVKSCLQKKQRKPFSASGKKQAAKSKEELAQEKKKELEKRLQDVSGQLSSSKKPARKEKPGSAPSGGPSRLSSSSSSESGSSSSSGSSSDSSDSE

[4] = target: T2, Bromodomain-containing protein 3; assay: TR-FRET assay (BRD3 BD2)
Target sequence in this assay (Q15059 whole entry): as above

[5] = target: T3, Bromodomain testis-specific protein (Homo sapiens, UniProt Q58F21); assay: TR-FRET assay (BRDT BD1)
[6] = target: T3, Bromodomain testis-specific protein; assay: TR-FRET assay (BRDT BD2)
[7] = target: T1, Bromodomain-containing protein 2; assay: BET mutant TR-FRET assay (BRD2 BD1)
[8] = target: T1, Bromodomain-containing protein 2; assay: BET mutant TR-FRET assay (BRD2 BD2)
[9] = target: T2, Bromodomain-containing protein 3; assay: BET mutant TR-FRETassay (BRD3 BD1)
[10] = target: T3, Bromodomain testis-specific protein; assay: BET mutant TR-FRET assay (BRDT BD1)
[11] = target: T1, Bromodomain-containing protein 2; assay: BRD2 BD2 Bromoscan (DiscoverX)
Target sequence in this assay (P25440 whole entry): as the sequence (P25440 whole entry) above

[12] = target: Bromodomain adjacent to zinc finger domain protein 2A (Homo sapiens, UniProt Q9UIF9); assay: BAZ2A DiscoverX BROMOscan
[13] = target: T1, Bromodomain-containing protein 2; assay: BRD2(2) DiscoverX BROMOscan
Target sequence in this assay (P25440 whole entry): as above

[14] = target: Bromodomain-containing protein 8 (Homo sapiens, UniProt Q9H0E9); assay: BRD8(1) DiscoverX BROMOscan
[15] = target: T3, Bromodomain testis-specific protein; assay: BRDT(1,2) DiscoverX BROMOscan
Peregrin = Peregrin (Homo sapiens, UniProt P55201); assay: BRPF1 DiscoverX BROMOscan
[16] = target: Bromodomain and PHD finger-containing protein 3 (Homo sapiens, UniProt Q9ULD4); assay: BRPF3 DiscoverX BROMOscan
[17] = target: Chromatin remodeling regulator CECR2 (Homo sapiens, UniProt Q9BXF3); assay: CECR2 DiscoverX BROMOscan
CREB-binding protein = CREB-binding protein (Homo sapiens, UniProt Q92793); assay: CREBBP DiscoverX BROMOscan
[18] = target: Histone acetyltransferase KAT2A (Homo sapiens, UniProt Q92830); assay: GCN5L2 DiscoverX BROMOscan
[19] = target: Histone acetyltransferase KAT2B (Homo sapiens, UniProt Q92831); assay: PCAF DiscoverX BROMOscan
[20] = target: Transcription initiation factor TFIID subunit 1 (Homo sapiens, UniProt P21675); assay: TAF1(2) DiscoverX BROMOscan
[21] = target: Transcription intermediary factor 1-alpha (Homo sapiens, UniProt O15164); assay: TRIM24(BROMO.) DiscoverX BROMOscan
[22] = target: Bromodomain and WD repeat-containing protein 1 (Homo sapiens, UniProt Q9NSI6); assay: WDR9(2) DiscoverX BROMOscan
[23] = target: 5-hydroxytryptamine receptor 1B (Homo sapiens, UniProt P28222); assay: (§1) Cross screening panel
[24] = target: 5-hydroxytryptamine receptor 2C (Homo sapiens, UniProt P28335); assay: as §1
[25] = target: Acetylcholine receptor subunit alpha (Homo sapiens, UniProt P02708); assay: as §1
Acetylcholinesterase = Acetylcholinesterase (Homo sapiens, UniProt P22303); assay: as §1
Adenosine receptor A2a = Adenosine receptor A2a (Homo sapiens, UniProt P29274); assay: as §1
[26] = target: Alpha-1B adrenergic receptor (Homo sapiens, UniProt P35368); assay: as §1
[27] = target: Alpha-2C adrenergic receptor (Homo sapiens, UniProt P18825); assay: as §1
[28] = target: Amine oxidase [flavin-containing] A (Homo sapiens, UniProt P21397); assay: as §1
[29] = target: T4, Beta-2 adrenergic receptor (Homo sapiens, UniProt P07550); assay: as §1
Target sequence in this assay (P07550 whole entry): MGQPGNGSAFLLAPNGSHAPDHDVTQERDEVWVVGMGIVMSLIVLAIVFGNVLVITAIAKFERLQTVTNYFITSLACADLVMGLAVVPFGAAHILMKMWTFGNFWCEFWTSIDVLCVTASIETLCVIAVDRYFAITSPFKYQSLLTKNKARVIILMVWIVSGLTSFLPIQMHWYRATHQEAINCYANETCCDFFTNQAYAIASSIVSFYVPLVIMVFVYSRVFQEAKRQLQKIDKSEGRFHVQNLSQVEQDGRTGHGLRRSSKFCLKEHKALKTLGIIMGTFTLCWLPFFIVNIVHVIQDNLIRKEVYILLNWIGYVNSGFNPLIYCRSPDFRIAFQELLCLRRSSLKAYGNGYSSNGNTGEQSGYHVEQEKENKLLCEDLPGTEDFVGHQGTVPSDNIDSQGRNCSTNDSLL

D(1A) dopamine receptor = D(1A) dopamine receptor (Homo sapiens, UniProt P21728); assay: as §1
D(2) dopamine receptor = D(2) dopamine receptor (Homo sapiens, UniProt P14416); assay: as §1
Histamine H1 receptor = Histamine H1 receptor (Homo sapiens, UniProt P35367); assay: as §1
Mu-type opioid receptor [30] = target: T5, Mu-type opioid receptor (Homo sapiens, UniProt P35372); assay: as §1
[31] = target: Muscarinic acetylcholine receptor M2 (Homo sapiens, UniProt P08172); assay: as §1
[32] = target: Phosphatidylinositol 4,5-bisphosphate 3-kinase catalytic subunit gamma isoform (Homo sapiens, UniProt P48736); assay: as §1
[33] = target: Potassium voltage-gated channel subfamily A member 5 (Homo sapiens, UniProt P22460); assay: as §1
[34] = target: Prostaglandin G/H synthase 2 (Homo sapiens, UniProt P35354); assay: as §1
[35] = target: Solute carrier organic anion transporter family member 1B1 (Homo sapiens, UniProt Q9Y6L6); assay: as §1
[36] = target: GABA-A receptor; anion channel; assay: as §1; type: protein-complex assay
[37] = target: Voltage-gated potassium channel, IKs; KCNQ1(Kv7.1)/KCNE1(MinK) (Homo sapiens, UniProt P15382+P51787); assay: as §1; type: protein-complex assay
[38] = target: GABA-A receptor; anion channel; assay: as §1; type: protein-complex assay; remark: listed apart in the source
[39] = target: 5-hydroxytryptamine receptor 1A (Homo sapiens) (UniProt P08908); conditions: Compound concentration 10.0 uM
[40] = target: 5-hydroxytryptamine receptor 6 (Homo sapiens) (UniProt P50406); conditions: Compound concentration 10.0 uM
[41] = target: Sodium-dependent noradrenaline transporter (Homo sapiens) (UniProt P23975); conditions: Compound concentration 10.0 uM
Mu-type opioid receptor [42] = target: T5, Mu-type opioid receptor; conditions: Compound concentration 10.0 uM
[43] = target: Histamine H4 receptor (Homo sapiens) (UniProt Q9H3N8); conditions: Compound concentration 10.0 uM
[44] = target: Alpha-2B adrenergic receptor (Homo sapiens) (UniProt P18089); conditions: Compound concentration 10.0 uM
[45] = target: Alpha-2C adrenergic receptor (Homo sapiens) (UniProt P18825); conditions: Compound concentration 10.0 uM
[46] = target: T4, Beta-2 adrenergic receptor; conditions: Compound concentration 10.0 uM
[47] = target: Muscarinic acetylcholine receptor M1 (Homo sapiens) (UniProt P11229); conditions: Compound concentration 10.0 uM
[48] = target: Muscarinic acetylcholine receptor M2 (Homo sapiens) (UniProt P08172); conditions: Compound concentration 10.0 uM
Rattus norvegicus = organism: Rattus norvegicus; conditions: Compound concentration 10.0 uM
[49] = target: Alpha-1D adrenergic receptor (Homo sapiens) (UniProt P25100); conditions: Compound concentration 10.0 uM
[50] = target: Sigma intracellular receptor 2 (Homo sapiens) (UniProt Q5BJF2); conditions: Compound concentration 10.0 uM

T5 sequence (P35372 whole entry): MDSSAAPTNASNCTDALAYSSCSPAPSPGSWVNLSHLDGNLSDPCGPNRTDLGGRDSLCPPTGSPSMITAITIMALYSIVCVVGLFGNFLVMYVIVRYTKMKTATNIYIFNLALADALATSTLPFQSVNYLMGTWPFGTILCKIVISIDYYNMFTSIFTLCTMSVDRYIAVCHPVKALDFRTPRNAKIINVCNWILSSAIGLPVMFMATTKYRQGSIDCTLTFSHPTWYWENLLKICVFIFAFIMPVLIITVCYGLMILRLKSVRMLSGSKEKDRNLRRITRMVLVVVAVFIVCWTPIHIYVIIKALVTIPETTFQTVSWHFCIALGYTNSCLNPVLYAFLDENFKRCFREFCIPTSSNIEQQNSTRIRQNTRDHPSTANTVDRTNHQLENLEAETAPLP
Chain of Acetylcholine receptor subunit alpha (P02708 whole entry): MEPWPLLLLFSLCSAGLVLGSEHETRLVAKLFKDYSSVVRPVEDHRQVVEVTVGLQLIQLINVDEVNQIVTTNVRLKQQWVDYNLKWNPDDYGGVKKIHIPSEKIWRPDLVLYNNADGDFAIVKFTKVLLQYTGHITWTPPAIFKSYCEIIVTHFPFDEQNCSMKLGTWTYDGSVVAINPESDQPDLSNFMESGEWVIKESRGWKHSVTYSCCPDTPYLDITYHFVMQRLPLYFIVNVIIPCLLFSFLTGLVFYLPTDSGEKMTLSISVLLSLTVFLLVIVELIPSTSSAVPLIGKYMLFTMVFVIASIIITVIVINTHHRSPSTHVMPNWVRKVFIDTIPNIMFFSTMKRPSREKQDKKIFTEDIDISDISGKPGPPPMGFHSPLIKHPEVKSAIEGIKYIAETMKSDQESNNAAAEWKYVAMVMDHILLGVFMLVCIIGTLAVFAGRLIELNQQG
Chain of Muscarinic acetylcholine receptor M2 (P08172 whole entry, canonical isoform): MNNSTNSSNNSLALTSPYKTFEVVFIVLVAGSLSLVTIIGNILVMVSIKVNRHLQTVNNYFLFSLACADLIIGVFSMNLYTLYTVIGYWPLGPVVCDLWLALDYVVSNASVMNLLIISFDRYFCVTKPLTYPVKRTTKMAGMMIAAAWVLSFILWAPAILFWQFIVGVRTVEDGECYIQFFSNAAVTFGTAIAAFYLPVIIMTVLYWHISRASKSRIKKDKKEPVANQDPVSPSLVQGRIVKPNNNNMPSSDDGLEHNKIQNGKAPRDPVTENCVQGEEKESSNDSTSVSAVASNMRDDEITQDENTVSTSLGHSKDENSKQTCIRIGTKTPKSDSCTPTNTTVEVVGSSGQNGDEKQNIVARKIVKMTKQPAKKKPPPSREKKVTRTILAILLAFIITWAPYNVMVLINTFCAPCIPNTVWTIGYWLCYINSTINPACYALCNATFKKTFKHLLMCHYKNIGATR
Chain of D(2) dopamine receptor (P14416 whole entry): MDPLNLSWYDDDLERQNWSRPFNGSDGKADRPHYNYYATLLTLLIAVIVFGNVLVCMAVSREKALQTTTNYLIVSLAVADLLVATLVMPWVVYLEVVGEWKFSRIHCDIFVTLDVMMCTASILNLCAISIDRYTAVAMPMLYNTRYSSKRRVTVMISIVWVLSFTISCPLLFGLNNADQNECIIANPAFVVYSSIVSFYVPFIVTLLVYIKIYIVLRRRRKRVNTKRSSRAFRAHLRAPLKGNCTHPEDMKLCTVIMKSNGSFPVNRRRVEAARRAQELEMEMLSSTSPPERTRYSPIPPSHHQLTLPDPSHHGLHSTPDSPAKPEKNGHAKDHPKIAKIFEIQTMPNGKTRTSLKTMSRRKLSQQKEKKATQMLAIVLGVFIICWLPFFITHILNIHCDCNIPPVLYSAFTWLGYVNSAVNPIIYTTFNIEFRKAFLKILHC
Chain of 5-hydroxytryptamine receptor 1B (P28222 whole entry): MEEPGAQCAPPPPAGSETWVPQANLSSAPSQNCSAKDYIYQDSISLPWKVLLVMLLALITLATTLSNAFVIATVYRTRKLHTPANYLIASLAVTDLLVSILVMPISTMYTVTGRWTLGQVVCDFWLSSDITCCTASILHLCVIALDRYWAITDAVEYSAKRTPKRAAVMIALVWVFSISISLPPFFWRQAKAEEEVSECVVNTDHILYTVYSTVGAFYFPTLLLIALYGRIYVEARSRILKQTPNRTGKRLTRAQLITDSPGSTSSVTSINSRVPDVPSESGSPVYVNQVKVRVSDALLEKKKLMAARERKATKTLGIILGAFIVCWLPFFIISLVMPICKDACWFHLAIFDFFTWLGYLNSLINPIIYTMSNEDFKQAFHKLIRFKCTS
Chain of Solute carrier organic anion transporter family member 1B1 (Q9Y6L6 whole entry): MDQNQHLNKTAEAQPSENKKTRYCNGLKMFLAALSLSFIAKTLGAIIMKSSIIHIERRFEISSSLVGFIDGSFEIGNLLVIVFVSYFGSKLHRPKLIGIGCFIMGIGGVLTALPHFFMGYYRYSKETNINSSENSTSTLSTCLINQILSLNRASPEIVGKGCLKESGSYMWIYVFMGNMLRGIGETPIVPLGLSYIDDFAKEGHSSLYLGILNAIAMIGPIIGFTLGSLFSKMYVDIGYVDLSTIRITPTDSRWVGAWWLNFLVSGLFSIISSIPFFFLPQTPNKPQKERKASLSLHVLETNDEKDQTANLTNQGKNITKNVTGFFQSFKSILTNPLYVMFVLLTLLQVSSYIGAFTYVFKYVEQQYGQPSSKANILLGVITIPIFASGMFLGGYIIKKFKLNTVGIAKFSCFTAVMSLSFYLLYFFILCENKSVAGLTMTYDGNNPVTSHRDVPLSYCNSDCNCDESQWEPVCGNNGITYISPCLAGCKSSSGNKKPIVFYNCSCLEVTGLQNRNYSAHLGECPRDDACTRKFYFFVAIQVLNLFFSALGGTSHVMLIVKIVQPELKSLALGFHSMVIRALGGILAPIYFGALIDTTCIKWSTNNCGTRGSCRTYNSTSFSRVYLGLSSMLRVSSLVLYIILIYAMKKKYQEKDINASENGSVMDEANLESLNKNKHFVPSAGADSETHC
Chain of Muscarinic acetylcholine receptor M2 (Homo sapiens) (P08172 whole entry): as the sequence (P08172 whole entry, canonical isoform) above

CC(=O)Nc1c(F)cc(C(=O)N[C@H]2CC[C@H](O)CC2)cc1O[C@@H](C)c1ccccc1 [GSK046]
Ki [1]: 3.44 µM | IC50 [2]: 11 µM (not active) | IC50 [3]: 36.3 µM (not active) | IC50 [4]: 0.098 µM (active) | IC50 [5]: > 50.1 µM (not active) | IC50 [6]: 0.214 µM (active) | pIC50 [7]: 5 | pIC50 [8]: 6.6 | pIC50 [9]: 4.4 | pIC50 [10]: 4.3 | Kd [11]: 0.035 µM (active) | Kd [12]: 30 µM | Kd [13]: 0.035 µM | Kd [14]: 30 µM | Kd [15]: 0.036 µM | Kd (Peregrin): 30 µM | Kd [16]: 30 µM | Kd [17]: 30 µM | Kd (CREB-binding protein): 30 µM | Kd [18]: 30 µM | Kd [19]: 30 µM | Kd [20]: 30 µM | Kd [21]: 30 µM | Kd [22]: 30 µM | EC50 [23]: > 100 µM | IC50 [23]: > 100 µM | EC50 [24]: > 25.1 µM | EC50 [25]: > 50.1 µM | IC50 [25]: 25.1 µM | IC50 (Acetylcholinesterase): 7.94 µM | EC50 (Adenosine receptor A2a): 31.6 µM | Ki [26]: > 25.1 µM | EC50 [27]: > 100 µM | IC50 [28]: > 100 µM | EC50 [29]: > 100 µM | IC50 [29]: > 100 µM | IC50 (D(1A) dopamine receptor): > 100 µM | EC50 (D(2) dopamine receptor): > 100 µM | Ki (D(2) dopamine receptor): > 100 µM | IC50 (Histamine H1 receptor): > 25.1 µM | EC50 (Mu-type opioid receptor [30]): > 100 µM | EC50 [31]: > 50.1 µM | IC50 [31]: > 50.1 µM | IC50 [32]: > 31.6 µM | IC50 [33]: > 50.1 µM | IC50 [34]: > 100 µM | IC50 [35]: > 50.1 µM | pEC50 [36]: < 4 | pIC50 [36]: < 4 | IC50 [37]: > 25.1 µM | pEC50 [38]: < 4 | inhibition [39]: -8.96% | inhibition [40]: 11.4% | inhibition [41]: -0.92% | inhibition (Mu-type opioid receptor [42]): 20.4% | inhibition [43]: 20.1% | inhibition [44]: 3.38% | inhibition [45]: -0.86% | inhibition [46]: 28.1% | inhibition [47]: -4.64% | inhibition [48]: 18.1% | inhibition (Rattus norvegicus): 5.68% | inhibition [49]: -6.01% | inhibition [50]: -0.94%
